Measurements from US20060058320A1, “[1,2,4] Triazolo[1,5-c]pyrimidine derivatives” (KYOWA HAKKO KOGYO CO., LTD., priority 2002, published 2006).
Where a name gives a salt, the structure may show the parent alone. Read-outs that look alike come from different tables or passages of the source.

Assays:
[1] = tested on: CGS 21680-induced catalepsy; assay: Activity on CGS 21680-induced catalepsy; type: in vivo, mice; settings: 10 mg/kg orally; for inhibition in vivo at 10 mg/kg: Mus musculus, po, read-out: Remission ratio (%); for Total score: total catalepsy score of 10 mice (maximum 50 points; 40 points or less = positive), one hour after administration
Experimental: Parkinson's disease is a motor disorder based on degeneration and cell death of the nigrostriatal dopaminergic neurons. When CGS 21680 (adenosine A2A receptor agonist) is administered into the intracerebral ventricle, the inhibitory synaptic transmission of GABA in the medium sized spiny neurons in the corpus striatum is inhibited directly via the adenosine A2A receptor [Journal of Neuroscience, vol. 16, p. 605 (1996)]. Accordingly, it is concidered that the adenosine A2A receptor agonists positively regulate the output of the GABAergic neurons from the corpus striatum to the globus pallidus lateralis, and, as a result, catalepsy is induced by the administration of CGS 21680.
The test was carried out using ten 5-week age male ddY mice (22-25 g in body weight, Japan SLC) per group. CGS 21680 (produced by RBI Co) was dissolved in physiological saline (produced by Otsuka Pharmaceutical Co., Ltd.), and 10 μg/20 μL of the solution was injected into mouse intracerebral ventricle. Each test compound was used by suspending it in distilled water containing 0.3% of polyoxylene (20) sorbitan monooleate (referred to as “Tween 80” hereinafter) (produced by Otsuka Pharmaceutical Co., Ltd.). The suspension containing each test compound or a solution containing no test Compound (distilled water containing 0.3% of Tween 80; used as a control) was orally administered (0.1 mL per 10 g of mouse body weight) 30 minutes before the injection of CGS 21680 into the intracerebral ventricle. One hour after the administration of the each test compound, only forelimbs or only hindlimbs of each mouse were laid on a vertically arranged stand made of acryl and having a size of 4.5 cm in height and 1.0 cm in width to measure catalepsy symptoms. All of the test compounds were administered orally in a dose of 10 mg/kg.
The criteria of the catalepsy score are shown below.
The effect was decided by a total catalepsy score of 10 mice in one group (the maximum score: 50 points). When the total score was 40 points or less, the activity of the compounds was decided positive. The number of the animals showing remission of catalepsy was expressed by the number of cases showing a catalepsy score of 4 points or less in 10 cases. The catalepsy remission ratio was expressed as the percentage of the total score in the test compound-administered group to the total score in the control group.

adenosine A2A receptor = molecular target: T1, adenosine A2A receptor (Rattus norvegicus, UniProt P30543); assay: Adenosine A2A receptor binding test (3H-CGS 21680 binding); settings: for inhibition at 0.1 µM: read-out: A2A Receptor inhibition rate (%) at 10^−7 mol/L
T1 construct: from tissue; host or cells: rat corpus striatum membrane preparation
T1 sequence (P30543 whole entry): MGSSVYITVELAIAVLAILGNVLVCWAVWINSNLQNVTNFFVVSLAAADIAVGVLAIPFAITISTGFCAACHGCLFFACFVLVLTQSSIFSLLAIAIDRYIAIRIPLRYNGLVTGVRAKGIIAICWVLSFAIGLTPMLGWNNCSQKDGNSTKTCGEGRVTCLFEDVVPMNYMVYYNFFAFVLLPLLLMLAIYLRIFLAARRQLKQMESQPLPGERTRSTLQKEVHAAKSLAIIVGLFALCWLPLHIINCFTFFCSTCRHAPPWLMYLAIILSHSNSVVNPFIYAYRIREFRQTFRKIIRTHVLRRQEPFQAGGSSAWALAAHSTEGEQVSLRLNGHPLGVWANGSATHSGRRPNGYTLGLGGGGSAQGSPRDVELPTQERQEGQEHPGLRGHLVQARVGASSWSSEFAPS
Experimental: The test was carried out according to the method of Bruns et al. [Molecular Pharmacology, vol. 29, p.
Rat corpus striatum was suspended in an ice-cold 50 mmol/L tris(hydroxymethyl)aminomethane hydrochloride (referred to as “Tris HCl” hereinafter) buffer (pH 7.7) using a Polytron homogenizer (produced by Kinematica Co.). The suspension was centrifuged (50,000×g, 10 minutes), and the resulting precipitate was again suspended in the same amount of a 50 mmol/L Tris HCl buffer, followed by centrifugation under the same conditions. The resulting finalprecipitate was again suspended in a 50 mmol/L-Tris HCl buffer [containing 10 mmol/L of magnesium chloride and 0.02 unit/mg tissue of adenosine deaminase (produced by Sigma Co.)] so that the tissue concentration was 5 mg (wet weight)/mL.
The radioactivity on the filter was determined with a liquid scintillation counter (produced by Packard Instrument Co.).
In the equation, X represents Amount of binding in the presence of a medicament, Y represents Amount of nonspecific binding, and Z represents Amount of total binding.

[2] = from total score of test group and control group
[3] = test compound 10^−7 mol/L, 3H-CGS 21680 binding, rat corpus striatum

Row | Molecule | inhibition at 0.1 µM (adenosine A2A receptor; [3]) | further results
1 | COc1ccc(CN(C)C(=O)c2cc3nc(-c4ccco4)nn3c(N)n2)cn1 [Compound 131, 5-Amino-2-(2-furyl)[1,2,4]triazolo[1,5-c]pyrimidine-7-carboxylic acid [N-methyl-N-(6-methoxypyridin-3-ylmethyl)]-amide] | 51% | inhibition in vivo at 10 mg/kg [1, 2]: 88%; Total score [1]: 6
2 | Nc1nc(C(=O)N2CCCC2)cc2nc(-c3ccco3)nn12 [Compound 148, 5-Amino-2-(2-furyl)[1,2,4]triazolo[1,5-c]pyrimidin-7-yl pyrrolidinyl ketone] |  | A2A Receptor inhibition rate (%) at 10^−7 mol/L (adenosine A2A receptor; [3]): 75%
3 | CC1CCCN(C(=O)c2cc3nc(-c4ccco4)nn3c(N)n2)C1 (stereo not shown) [Compound 145, 5-Amino-2-(2-furyl)[1,2,4]triazolo[1,5-c]pyrimidin-7-yl 3-methylpiperidino ketone] |  | inhibition at 0.1 µM (adenosine A2A receptor): 60%
4 | CN(Cc1cccnc1Cl)C(=O)c1cc2nc(-c3ccco3)nn2c(N)n1 [Compound 128, 5-Amino-2-(2-furyl)[1,2,4]triazolo[1,5-c]pyrimidine-7-carboxylic acid [N-(2-chloropyridin-3-ylmethyl)-N-methyl]-amide] | 59% | 
5 | Nc1nc(C#CC2(O)CCCC2)cc2nc(-c3ccco3)nn12 [Compound 69, 5-Amino-2-(2-furyl)-7-[2-(1-hydroxycyclopentyl)ethynyl][1,2,4]triazolo[1,5-c]pyrimidine] | 78% | inhibition in vivo at 10 mg/kg [1, 2]: 96%; Total score [1]: 2
6 | 5-Amino-2-(2-furyl)-7-(2-phenylthienyl)[1,2,4]triazolo[1,5-c]pyrimidine [Compound 65] |  | A2A Receptor inhibition rate (%) at 10^−7 mol/L (adenosine A2A receptor; [3]): 96%
7 | CN(Cc1ccccc1Cl)C(=O)c1cc2nc(-c3ccco3)nn2c(N)n1 [Compound 122, 5-Amino-2-(2-furyl)[1,2,4]triazolo[1,5-c]pyrimidine-7-carboxylic acid [N-(2-chlorobenzyl)-N-methyl]amide monohydrochloride] | 74% | inhibition in vivo at 10 mg/kg [1, 2]: 80%; Total score [1]: 10
8 | CC(C)N(Cc1ccn(C)c1)C(=O)c1cc2nc(-c3ccco3)nn2c(N)n1 [Compound 116, 5-Amino-2-(2-furyl)[1,2,4]triazolo[1,5-c]pyrimidine-7-carboxylic acid [N-isopropyl-N-(1-methylpyrrol-3-ylmethyl)]amide] |  | Number of animals showing remission ([1]; cases with catalepsy score of 4 points or less in 10 cases): 9; Remission ratio (%) [1, 2]: 82%; Total score [1]: 9; A2A Receptor inhibition rate (%) at 10^−7 mol/L (adenosine A2A receptor; [3]): 62%
9 | CN(Cc1ccc2c(c1)OCO2)C(=O)c1cc2nc(-c3ccco3)nn2c(N)n1 [Compound 107, 5-Amino-2-(2-furyl)[1,2,4]triazolo[1,5-c]pyrimidine-7-carboxylic acid [N-(1,3-benzodioxol-5-ylmethyl)-N-methyl]amide monohydrochloride] | 71% | inhibition in vivo at 10 mg/kg [1, 2]: 90%; Total score [1]: 5
10 | Nc1nc(CNCCc2ccccn2)cc2nc(-c3ccco3)nn12 [Compound 44, 5-Amino-7-[2-(2-pyridyl)ethylaminomethyl]-2-(2-furyl)-[1,2,4]triazolo[1,5-c]pyrimidine dihydrochloride] | 56% | 
11 | COc1ccc(CNCc2cc3nc(-c4ccco4)nn3c(N)n2)cc1OC [Compound 42, 5-Amino-7-(3,4-dimethoxybenzylaminomethyl)-2-(2-furyl)-[1,2,4]triazolo[1,5-c]pyrimidine dihydrochloride] | 62% | 
12 | Nc1nc(CN2CCN(CC3CC3)CC2)cc2nc(-c3ccco3)nn12 [Compound 50, 5-Amino-7-[4-(cyclopropylmethyl)piperazin-1-ylmethyl]-2-(2-furyl)[1,2,4]triazolo[1,5-c]pyrimidine dihydrochloride] | 65% | 
13 | COc1ccc(CN(C)C(=O)c2cc3nc(-c4ccco4)nn3c(N)n2)cc1 [Compound 108, 5-Amino-2-(2-furyl)[1,2,4]triazolo[1,5-c]pyrimidine-7-caroboxylic acid [N-(4-methoxybenzyl)-N-methyl]amide monohydrochloride] | 65% | inhibition in vivo at 10 mg/kg [1, 2]: 96%; Total score [1]: 2
14 | N#CCCN(Cc1cccnc1)C(=O)c1cc2nc(-c3ccco3)nn2c(N)n1 [Compound 103, 5-Amino-2-(2-furyl)[1,2,4]triazolo[1,5-c]pyrimidine-7-carboxylic acid [N-(2-cyanoethyl)-N-(3-pyridylmethyl)]amide] | 54% | 
15 | Nc1nc(/C=C/CNCC2CC2)cc2nc(-c3ccco3)nn12 [Compound 68, 5-Amino-7-[3-(cyclopropylmethylamino)-(E)-propan-1-en-1-yl]-2-(2-furyl)[1,2,4]triazolo[1,5-c]pyrimidine] | 96% | 
16 | COc1cc(CNCc2cc3nc(-c4ccco4)nn3c(N)n2)cc(OC)c1 [Compound 43, 5-Amino-7-[(3,5-dimethoxybenzylamino)methyl]-2-(2-furyl)-[1,2,4]triazolo[1,5-c]pyrimidine dihydrochloride] | 60% | 
17 | Nc1nc(C(=O)N2CCCCC2)cc2nc(-c3ccco3)nn12 [Compound 142, 5-Amino-2-(2-furyl)[1,2,4]triazolo[1,5-c]pyrimidin-7-yl piperidino ketone] | 71% | 
18 | Cc1ncccc1CN(C)C(=O)c1cc2nc(-c3ccco3)nn2c(N)n1 [Compound 134, 5-Amino-2-(2-furyl)[1,2,4]triazolo[1,5-c]pyrimidine-7-carboxylic acid [N-methyl-N-(2-methylpyridin-3-ylmethyl)]-amide] | 60% | 
19 | CCN(Cc1ccccc1)C(=O)c1cc2nc(-c3ccco3)nn2c(N)n1 [Compound 99, 5-Amino-2-(2-furyl)[1,2,4]triazolo[1,5-c]pyrimidine-7-carboxylic acid (N-benzyl-N-ethyl)amide] | 69% | 
20 | COc1cc(CNCc2ccc(-c3cc4nc(-c5ccco5)nn4c(N)n3)cc2)cc(OC)c1 [Compound 17, 5-Amino-7-[4-(3,5-dimethoxybenzylaminomethyl)phenyl]-2-(2-furyl)[1,2,4]triazolo[1,5-c]pyrimidine monohydrochloride] | 70% | 
21 | CC(=O)NCCNCc1ccccc1-c1cc2nc(-c3ccco3)nn2c(N)n1 [Compound 7, 5-Amino-7-{2-[2-(N-acetylamino)ethylaminomethyl]phenyl}-2-(2-furyl)[1,2,4]triazolo[1,5-c]pyrimidine monohydrochloride] | 64% | 
22 | CN(Cc1cccc(F)c1)C(=O)c1cc2nc(-c3ccco3)nn2c(N)n1 [Compound 120, 5-Amino-2-(2-furyl)[1,2,4]triazolo[1,5-c]pyrimidine-7-carboxylic acid [N-(3-fluorobenzyl)-N-methyl]amide monohydrochloride] | 61% | 
23 | CN(Cc1ccco1)C(=O)c1cc2nc(-c3ccco3)nn2c(N)n1 [Compound 101, 5-Amino-2-(2-furyl)[1,2,4]triazolo[1,5-c]pyrimidine-7-carboxylic acid [N-(2-furylmethyl)-N-methyl]amide] | 83% | 
24 | COC(C)(C)c1cc2nc(-c3ccco3)nn2c(N)n1 [Compound 25, 5-Amino-2-(2-furyl)-7-(1-methyl-1-methoxyethyl)[1,2,4]-triazolo[1,5-c]pyrimidine] | 47% | 
